These results are taken from US9561186B2, “Method for improving the bioavailability of low aqueous solubility drugs” (PHARMATHEN S.A., priority 2012, dated 2017).

This series is described as follows: Solubility of Tadalafil in 2-pyrrolidone. Format: physicochemical. Conditions: compared with ethanol as solvent. From the text: Pyrroplus Manufacturing Process” as described above, overcomes several problems associated with the low solubility of Tadalafil. […] Conversely, using ethanol as solvent requires either increased amount of solvent or small quantity of Tadalafil, which both incommode the preparation of a pharmaceutical composition.

Take `CN1CC(=O)N2[C@H](c3ccc4c(c3)OCO4)c3[nH]c4ccccc4c3C[C@@H]2C1=O` [Tadalafil]: the “solubility when dissolved in 2-pyrrolidone” value was “its solubility increases and reaches high values”.
